Where two headings read alike, the source gives them in different places.
Legend:
HIV-1 = assay: NCI in vitro anti-HIV drug screen: XTT-formazan assay, protection of T4 lymphocytes (CEM) from HIV-1 cytopathic effects; assay type: cell-based, human immunodeficiency virus (HIV-1); details: for EC50: 144 h, HIV-1 infected CEM cells, 6 days, XTT, approximate values, read-out: EC50 (50% effective concentration against HIV cytopathic effects); for inhibition at 200 µM / activity at 200 µM: dose 2.00 × 10^-4 Molar; for inhibition at 20 µM / activity at 20 µM: dose 2.00 × 10^-5 Molar; for inhibition at 2 µM / activity at 2 µM: dose 2.00 × 10^-6 Molar; for inhibition at 0.2 µM / activity at 0.2 µM: dose 2.00 × 10^-7 Molar; for inhibition at 63.2 µM / activity at 63.2 µM: dose 6.32 × 10^-5 Molar; for inhibition at 6.33 µM / activity at 6.33 µM: dose 6.33 × 10^-6 Molar; for inhibition at 0.0635 µM / activity at 0.0635 µM: dose 6.35 × 10^-8 Molar; for TI50 (IC/EC), Therapeutic Index: IC50/EC50
Protocol: Compounds of the present invention were evaluated for anti-HIV efficacy by the National Cancer Institute's (NCI) In Vitro Anti AIDS Drug Discovery Program.
(§1) The NCI procedure is fully described, for example, in a bulletin provided by the National Institutes of Health, National Cancer Institute, Bethesda, Md. 20892, all of which is incorporated herein by reference. As related in the NCI bulletin, the procedure is based on O. W. Weislow et al., "New soluble-formazan assay for HIV-1 cytopathic effects: application to high flux screening of synthetic and natural products for AIDS-antiviral activity", J. Natl. Cancer Inst. 81:577-586 (1989), and is used to test for compounds active against human immunodeficiency virus (HIV), and is designed to detect compounds active at any stage of the virus reproductive cycle. As further related in the NCI bulletin, the assay includes killing of T4 lymphocytes by HIV. Amounts of HIV are added to cells, with a minimum of two cycles of virus reproduction found to be necessary to obtain the required cell killing. Compounds that interact with virions, cells, or virus gene-products to interfere with viral activities will protect cells from cytolysis. All were compared with a positive (e.g., AZT-treated) control evaluation at the same time under identical conditions. The procedure is set forth as follows:
(§2) A candidate compound is first dissolved in a suitable solvent, preferably dimethyl sulfoxide, then diluted 1:100 in cell culture medium before preparing serial half-log10 dilutions. T4 lymphocytes (CEM cell line) are then added and after a brief interval HIV-1 is added, resulting in a 1:200 final dilution of the compound. Uninfected cells with the compound serve as a toxicity control, and infected and uninfected without the compound serve as basic controls. Cultures are then incubated at 37° in a 5% carbon dioxide atmosphere for 6 days. The tetrazolium salt, XTT, is added to all wells, and cultures are incubated to allow formazan color development by viable cells. Individual wells are analyzed spectrophotometrically to quantitate formazan product, and in addition are viewed microscopically for detection of viable cells and confirmation of protective activity. Drug-treated virus-infected cells are compared with drug-treated noninfected cells and with other appropriate controls (untreated infected and untreated noninfected cells, drug-containing wells without cells, etc.) on the same plate. Data are reviewed in comparison with other tests performed at the same time and a determination as to activity is made.

[1] = test system: T4 lymphocytes (CEM cell line); assay: Cell growth / toxicity control in uninfected T4 lymphocytes (CEM), XTT-formazan; assay type: cell-based; details: Homo sapiens, CCRF-CEM; for IC50: 144 h, uninfected CEM cells, 6 days, XTT, approximate values, read-out: IC50 (50% inhibitory concentration for cell growth); for activity at 200 µM: dose 2.00 × 10^-4 Molar; for activity at 20 µM: dose 2.00 × 10^-5 Molar; for activity at 2 µM: dose 2.00 × 10^-6 Molar; for activity at 0.2 µM: dose 2.00 × 10^-7 Molar; for activity at 63.2 µM: dose 6.32 × 10^-5 Molar; for activity at 6.33 µM: dose 6.33 × 10^-6 Molar; for activity at 0.634 µM: dose 6.34 × 10^-7 Molar; for activity at 0.0635 µM: dose 6.35 × 10^-8 Molar
From the text: as §1, §2

[2] = Human immunodeficiency virus 1, CCRF-CEM
[3] = Human immunodeficiency virus 1, CCRF-CEM, read-out: Percent of Protection
[4] = Human immunodeficiency virus 1, CCRF-CEM, dose 6.34 × 10^-7 Molar, read-out: Percent of Protection
[5] = Human immunodeficiency virus 1, Lymphocyte, read-out: Percent of Control, Infected
[6] = Human immunodeficiency virus 1, Lymphocyte, dose 6.34 × 10^-7 Molar, read-out: Percent of Control, Infected
[7] = read-out: Percent of Control, Uninfected

## CNc1ccc(Cl)cc1S(=O)(=O)c1ccccc1[N+](=O)[O-] [Compound 72, 2-(2-nitrophenylsulfonyl)4-chloro-N-methylaniline]
HIV-1; [2]
  EC50: 75 nM
HIV-1; [3]
  inhibition at 200 µM: 74%
  inhibition at 20 µM: 84%
  inhibition at 2 µM: 93.4%
  inhibition at 0.2 µM: 76%
  inhibition at 63.2 µM: 85.5%
  inhibition at 6.33 µM: 93.3%
  inhibition at 0.0635 µM: 46.1%
HIV-1; [4]
  inhibition at 0.634 µM: 102%
HIV-1; [5]
  activity at 200 µM: 74.5%
  activity at 20 µM: 84.3%
  activity at 2 µM: 93.6%
  activity at 0.2 µM: 76.5%
  activity at 63.2 µM: 85.8%
  activity at 6.33 µM: 93.4%
  activity at 0.0635 µM: 47.1%
HIV-1; [6]
  activity at 0.634 µM: 102%
HIV-1
  TI50 (IC/EC), Therapeutic Index: > 2.67 × 10^+3
[1]
  IC50: > 200000 nM
[1]; [7]
  activity at 200 µM: 84%
  activity at 20 µM: 93.6%
  activity at 2 µM: 95.8%
  activity at 0.2 µM: 102%
  activity at 63.2 µM: 97%
  activity at 6.33 µM: 101%
  activity at 0.634 µM: 101%
  activity at 0.0635 µM: 99%

## CNc1ccc(S(=O)(=O)c2ccccc2[N+](=O)[O-])cc1Cl [Compound 77, 4-(2-nitrophenylsulfonyl)-2-chloro-N-methylaniline]
HIV-1; [2]
  EC50: 119 nM
HIV-1; [3]
  inhibition at 200 µM: 100%
  inhibition at 20 µM: 96.7%
  inhibition at 2 µM: 100%
  inhibition at 0.2 µM: 82%
  inhibition at 63.2 µM: 106%
  inhibition at 6.33 µM: 99.5%
  inhibition at 0.0635 µM: 12.3%
HIV-1; [4]
  inhibition at 0.634 µM: 89.8%
HIV-1; [5]
  activity at 200 µM: 100%
  activity at 20 µM: 96.8%
  activity at 2 µM: 100%
  activity at 0.2 µM: 82.9%
  activity at 63.2 µM: 106%
  activity at 6.33 µM: 99.5%
  activity at 0.0635 µM: 16.7%
HIV-1; [6]
  activity at 0.634 µM: 90.3%
HIV-1
  TI50 (IC/EC), Therapeutic Index: > 1.69 × 10^+3
[1]
  IC50: > 200000 nM
[1]; [7]
  activity at 200 µM: 111%
  activity at 20 µM: 89.7%
  activity at 2 µM: 110%
  activity at 0.2 µM: 106%
  activity at 63.2 µM: 95.2%
  activity at 6.33 µM: 100%
  activity at 0.634 µM: 107%
  activity at 0.0635 µM: 111%

## CNc1c(Cl)cccc1S(=O)(=O)c1ccccc1[N+](=O)[O-] [Compound 78, 2-(2-nitrophenylsulfonyl)-6-chloro-N-methylaniline]
HIV-1; [2]
  EC50: 220 nM
HIV-1; [3]
  inhibition at 20 µM: 89.5%
  inhibition at 2 µM: 93.9%
  inhibition at 0.2 µM: 45.9%
HIV-1; Human immunodeficiency virus 1, CCRF-CEM, dose 2.00 × 10^-8 Molar, read-out: Percent of Protection
  inhibition at 0.02 µM: 8.88%
HIV-1; Human immunodeficiency virus 1, CCRF-CEM, dose 6.32 × 10^-6 Molar, read-out: Percent of Protection
  inhibition at 6.32 µM: 96%
HIV-1; Human immunodeficiency virus 1, CCRF-CEM, dose 6.33 × 10^-7 Molar, read-out: Percent of Protection
  inhibition at 0.633 µM: 100%
HIV-1; Human immunodeficiency virus 1, CCRF-CEM, dose 6.34 × 10^-8 Molar, read-out: Percent of Protection
  inhibition at 0.0634 µM: 12.2%
HIV-1; Human immunodeficiency virus 1, CCRF-CEM, dose 6.35 × 10^-9 Molar, read-out: Percent of Protection
  inhibition at 0.00635 µM: 2.69%
HIV-1; [5]
  activity at 20 µM: 89.8%
  activity at 2 µM: 94.1%
  activity at 0.2 µM: 47%
HIV-1; Human immunodeficiency virus 1, Lymphocyte, dose 2.00 × 10^-8 Molar, read-out: Percent of Control, Infected
  activity at 0.02 µM: 10.7%
HIV-1; Human immunodeficiency virus 1, Lymphocyte, dose 6.32 × 10^-6 Molar, read-out: Percent of Control, Infected
  activity at 6.32 µM: 96%
HIV-1; Human immunodeficiency virus 1, Lymphocyte, dose 6.33 × 10^-7 Molar, read-out: Percent of Control, Infected
  activity at 0.633 µM: 100%
HIV-1; Human immunodeficiency virus 1, Lymphocyte, dose 6.34 × 10^-8 Molar, read-out: Percent of Control, Infected
  activity at 0.0634 µM: 13.9%
HIV-1; Human immunodeficiency virus 1, Lymphocyte, dose 6.35 × 10^-9 Molar, read-out: Percent of Control, Infected
  activity at 0.00635 µM: 4.64%
HIV-1
  TI50 (IC/EC), Therapeutic Index: > 9.08 × 10^+1
[1]
  IC50: > 20000 nM
[1]; [7]
  activity at 20 µM: 85.5%
  activity at 2 µM: 85.6%
  activity at 0.2 µM: 85.2%
[1]; dose 2.00 × 10^-8 Molar, read-out: Percent of Control, Uninfected
  activity at 0.02 µM: 92.2%
[1]; dose 6.32 × 10^-6 Molar, read-out: Percent of Control, Uninfected
  activity at 6.32 µM: 91.5%
[1]; dose 6.33 × 10^-7 Molar, read-out: Percent of Control, Uninfected
  activity at 0.633 µM: 86.4%
[1]; dose 6.34 × 10^-8 Molar, read-out: Percent of Control, Uninfected
  activity at 0.0634 µM: 87.4%
[1]; dose 6.35 × 10^-9 Molar, read-out: Percent of Control, Uninfected
  activity at 0.00635 µM: 88.5%

## CNc1ccc(S(=O)(=O)c2ccccc2[N+](=O)[O-])cc1C [Compound 79, 4-(2-nitrophenyisulfonyl)-N,2-dimethylaniline]
HIV-1; [2]
  EC50: 183 nM
HIV-1; [3]
  inhibition at 200 µM: 10.7%
  inhibition at 20 µM: 78.6%
  inhibition at 2 µM: 97%
  inhibition at 0.2 µM: 53.9%
  inhibition at 63.2 µM: 10.1%
  inhibition at 6.33 µM: 103%
  inhibition at 0.0635 µM: 7.87%
HIV-1; Human immunodeficiency virus 1, CCRF-CEM, read-out: Percent of Protection, dose 6.34 × 10^-7 Molar
  inhibition at 0.634 µM: 65%
HIV-1; [5]
  activity at 200 µM: 15.2%
  activity at 20 µM: 79.7%
  activity at 2 µM: 97.2%
  activity at 0.2 µM: 56.2%
  activity at 63.2 µM: 14.6%
  activity at 6.33 µM: 103%
  activity at 0.0635 µM: 12.5%
HIV-1; [6]
  activity at 0.634 µM: 66.8%
HIV-1
  TI50 (IC/EC), Therapeutic Index: 1.79 × 10^-2
[1]
  IC50: 32700 nM
[1]; [7]
  activity at 200 µM: 11.9%
  activity at 20 µM: 76.9%
  activity at 2 µM: 94%
  activity at 0.2 µM: 97.1%
  activity at 63.2 µM: 13.9%
  activity at 6.33 µM: 98.2%
  activity at 0.634 µM: 93%
  activity at 0.0635 µM: 107%

## CCNc1ccccc1S(=O)(=O)c1ccccc1[N+](=O)[O-] [Compound 81, 2-(2-NITROPHENYLSULFONYL)-N-ETHYLANILINE]
HIV-1; [2]
  EC50: 2320 nM
HIV-1; [3]
  inhibition at 200 µM: 17.2%
  inhibition at 20 µM: 53.6%
  inhibition at 2 µM: 46.1%
  inhibition at 0.2 µM: 1.5%
  inhibition at 63.2 µM: -15%
  inhibition at 6.33 µM: 81.4%
  inhibition at 0.0635 µM: 5.99%
HIV-1; [4]
  inhibition at 0.634 µM: 31.3%
HIV-1; [5]
  activity at 200 µM: 43.7%
  activity at 20 µM: 68.5%
  activity at 2 µM: 63.3%
  activity at 0.2 µM: 33%
  activity at 63.2 µM: 21.8%
  activity at 6.33 µM: 87.3%
  activity at 0.0635 µM: 36.1%
HIV-1; [6]
  activity at 0.634 µM: 53.3%
HIV-1
  TI50 (IC/EC), Therapeutic Index: 1.39 × 10^+1
[1]
  IC50: 32200 nM
[1]; [7]
  activity at 200 µM: 13.7%
  activity at 20 µM: 68.6%
  activity at 2 µM: 89%
  activity at 0.2 µM: 70.7%
  activity at 63.2 µM: 23.6%
  activity at 6.33 µM: 83.1%
  activity at 0.634 µM: 89.4%
  activity at 0.0635 µM: 93.7%
